# In US20220259235A1, “EGFR Inhibitor, Composition, and Preparation Method Therefor” (BETTA PHARMACEUTICALS CO., LTD, priority 2019, published 2022):
# pIC50: −log10 of the molar value.
# Columns and labels:
# [1] = Liver microsomal clearance test, dog; type: in vitro ADME; conditions: Dog liver microsomes, 0.5 mg/mL, NADPH
# Experimental: Test 3 Liver Microsomal Clearance Test
# 1. Prepare 0.5 mg/mL liver microsome diluent containing K-butter and MgCl2:
# 2.1 Take 356 μL of the liver microsome diluent prepared above and add it to the preset wells of the incubation plate, the number of multiple wells n=1, mark it as the incubation plate.
# 2.2 Take 4 μL of the positive control compound Verapamil (50 μM) and the working solution of the test compound (200 μM) into the above incubation plate containing 356 μL of liver microsome diluent, and mix well (The dilution solvent from the stock solution to the working solution is a mixed solvent of acetonitrile: methanol: water=1:1:2, and the final concentration of DMSO is ≤0.5%),
# 2.3 Place the incubation plate in a 37° C. thermostatic oscillator (at shaking speed of 100 rpm) for pre-incubation with 10 min.
# 2.4 Add 40 μL of 10 mM NADPH (add 40 μL of K-buffer to the wells without NADPH) to each reaction well to start the reaction and start timing.
# 3. Sample collection and treatment:
# 3.1 After adding NADPH to start the reaction, immediately take out 50 μL of the sample and add it to the precipitation plate pre-added with 400 μL of stop solution, and shake on an oscillator at 600 rpm for 5 min at room temperature as a 0 min sample.
# 3.2 At the predetermined time points of 5 min, 15 min and 45 min, take out 50 μL of sample from the incubation plate and add it to the precipitation plate. The subsequent steps were the same as the treatment of 0 min sample. 3.3 After balancing, centrifuge above precipitation plate at 3200 rpm for 10 min at 4° C.
# 3.4 Take 50 μL of the supernatant after centrifugation and add it to pre-added 20% acetonitrile water at appropriate proportion, shake on an oscillator at 600 rpm for 2 min at room temperature, mix well, and put it into the LC-MS/MS sampler for sample injection.
# Analysis of Experimental Data
# 1. […]
# EGFR Δ19del/T790M/C797S = EGFR Δ19del/T790M/C797S (Homo sapiens, UniProt P00533, T790M/C797S, form not given); assay: EGFR Δ19del/T790M/C797S kinase test (mobility shift, Caliper EZ Reader); type: biochemical; conditions: kinase enzymatic activity, numeric values
# Experimental: Mobility variation analysis was performed to determine the affinity of the compound for EGFRΔ19del/T790M/C797S. The enzymatic reaction scheme is as follows:
# 1. Prepare 1* kinase buffer as follows:
# 2. Preparation of compound concentration gradient: The test compound was tested with an initial concentration of 3000 nM or 100 nM, diluted in a 384 source plate to a 100% DMSO solution with 100-fold final concentration, and the compound is 3-fold diluted with Precision to 10 concentrations. A dispenser Echo 550 was used to transfer 250 nL 100-fold final concentration of the compound to the target plate OptiPlate-384F.
# 3. Prepare 2.5-fold final concentration of kinase solution with 1×Kinase buffer;
# 4. Add 10 μL of 2.5-fold final concentration of kinase solution to the compound well and the positive control well; add 10 μL of 1×Kinase buffer to the negative control well.
# 5. Centrifuge at 1000 rpm for 30 seconds, shake the reaction plate for well mixation, and then incubate at room temperature for 10 minutes.
# 6. Prepare a mixture of ATP and Kinase substrate at 5/3-fold final concentration with 1×Kinase buffer.
# 7. Add 15 μL mixture of 5/3-fold final concentration of ATP and substrate to start reaction.
# 8. Centrifuge the 384-well plate at 1000 rpm for 30 seconds, shake it well and then incubate it at room temperature for corresponding time.
# 9. Add 30 μL of stop detection solution to stop the kinase reaction, centrifuge at 1000 rpm for 30 seconds, shake it well.
# 10. Read conversion rate with Caliper EZ Reader.
# % Inhibition=((Conversion%_max−Conversion%_sample)/(Conversion%_max−Conversion%_min))*100
# Wherein: Conversion%_sample is the sample conversion rate reading; Conversion%_min: Mean value of negative control wells, representing the conversion rate reading of wells without enzymatic activity; Conversion%_max: Mean value of positive control wells, representing the conversion rate reading of wells without compound inhibition.
# The dose-effect curve was fitted with concentration log value as X-axis and percentage inhibition rate as Y-axis. Log (inhibitor) vs. Response—Variable Slope of GraphPad Prism 5 was used to fit the dose-effect curve to obtain IC50 value of enzymatic activity for each compound.
# The calculation formula is as Y=Bottom (Top−Bottom)/(1+10^((LogIC50−X)*HillSlope)).
# As illustrated in examples, IC50 value is within the following range for the compound of the present invention: “A” represents “IC50≤1nM”; “B” represents “1 nM<IC50≤100nM”.
# Chain of EGFR Δ19del/T790M/C797S (P00533 with tags, fused parts or gaps DEL746-750/T790M/C797S, form open): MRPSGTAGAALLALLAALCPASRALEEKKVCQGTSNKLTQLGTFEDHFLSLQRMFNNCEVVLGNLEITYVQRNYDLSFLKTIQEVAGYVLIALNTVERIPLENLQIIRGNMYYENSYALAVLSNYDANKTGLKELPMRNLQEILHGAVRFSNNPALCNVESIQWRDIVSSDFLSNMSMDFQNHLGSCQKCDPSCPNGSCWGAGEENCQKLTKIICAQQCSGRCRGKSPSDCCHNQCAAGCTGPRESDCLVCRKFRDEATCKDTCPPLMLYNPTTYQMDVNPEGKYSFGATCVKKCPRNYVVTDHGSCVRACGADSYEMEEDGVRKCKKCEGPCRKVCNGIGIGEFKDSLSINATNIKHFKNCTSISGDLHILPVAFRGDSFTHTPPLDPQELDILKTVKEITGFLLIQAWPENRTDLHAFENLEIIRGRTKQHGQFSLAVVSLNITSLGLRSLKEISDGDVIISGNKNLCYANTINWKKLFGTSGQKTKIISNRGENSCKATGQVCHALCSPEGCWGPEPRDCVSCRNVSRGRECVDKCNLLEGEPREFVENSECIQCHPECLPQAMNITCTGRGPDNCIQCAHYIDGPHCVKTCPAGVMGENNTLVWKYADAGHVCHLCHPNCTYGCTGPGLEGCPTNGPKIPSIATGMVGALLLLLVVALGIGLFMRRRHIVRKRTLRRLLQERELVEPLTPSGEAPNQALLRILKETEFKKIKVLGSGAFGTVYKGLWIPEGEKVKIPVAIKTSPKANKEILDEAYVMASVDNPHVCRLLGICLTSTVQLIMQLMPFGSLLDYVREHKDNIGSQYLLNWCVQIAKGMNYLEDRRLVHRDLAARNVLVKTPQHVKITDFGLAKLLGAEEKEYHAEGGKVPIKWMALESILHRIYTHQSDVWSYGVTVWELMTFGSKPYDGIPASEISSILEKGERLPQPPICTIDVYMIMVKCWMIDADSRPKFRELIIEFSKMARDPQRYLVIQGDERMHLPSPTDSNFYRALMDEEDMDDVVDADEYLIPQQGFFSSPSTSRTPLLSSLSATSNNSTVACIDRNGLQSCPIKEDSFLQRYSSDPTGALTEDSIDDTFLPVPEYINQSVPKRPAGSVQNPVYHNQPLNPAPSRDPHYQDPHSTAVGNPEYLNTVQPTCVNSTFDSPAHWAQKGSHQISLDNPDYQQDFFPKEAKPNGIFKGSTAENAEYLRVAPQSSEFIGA
compound,measurement,setting,value
"COc1cc(N2CCC(N3CCN(C)CC3)CC2)c(-c2cnn(C)c2)cc1Nc1ncc(Cl)c(Nc2ccc3nccnc3c2P(C)(C)=O)n1 [Compound 1, (6-((5-Chloro-2-((2-methoxy-5-(1-methyl-1hydro-pyrazol-4-yl)-4-(4-(4-methylpiperazine-1-yl)piperidin-1-yl)phenyl)amino)pyrimidin-4-yl)amino)quinoxalin-5-yl)dimethylphosphine oxide]","Instrinsic clearance of liver microsomal protein, CLint",[1],1 μL/min/mg proteins
same,pIC50,EGFR Δ19del/T790M/C797S,9.52
